Laboratory results as given in patent US7488742B2, “Thrombin receptor antagonists” (Schering Corporation, priority 2000, dated 2009).

Molecular target: T1, thrombin receptor (Homo sapiens, UniProt P25116)
T1 construct: tissue North Jersey Blood Center (East Orange, N.J.); host or cells: platelet membranes from platelet concentrates
T1 sequence (P25116 22-425): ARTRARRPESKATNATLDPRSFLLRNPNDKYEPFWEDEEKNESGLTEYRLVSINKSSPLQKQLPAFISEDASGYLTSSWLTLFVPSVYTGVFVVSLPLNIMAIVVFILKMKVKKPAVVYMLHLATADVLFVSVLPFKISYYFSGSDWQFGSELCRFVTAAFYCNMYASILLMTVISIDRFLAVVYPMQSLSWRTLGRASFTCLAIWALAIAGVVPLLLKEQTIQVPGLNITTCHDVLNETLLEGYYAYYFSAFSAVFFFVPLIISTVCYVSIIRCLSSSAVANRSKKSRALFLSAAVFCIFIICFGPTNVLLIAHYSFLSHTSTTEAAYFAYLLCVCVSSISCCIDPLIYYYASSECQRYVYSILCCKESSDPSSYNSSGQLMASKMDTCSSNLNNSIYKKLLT
Experiment: High throughput thrombin receptor radioligand binding assay ([3H]haTRAP, platelet membranes)
Conditions: [3H]haTRAP binding to platelet membranes; read-out: thrombin receptor IC50 (concentration at which a 50% inhibition of thrombin receptor was observed)
Protocol: In Vitro Testing Procedure for Thrombin Receptor Antagonists:
The vessel was attached to the tritium line, frozen in liquid nitrogen and evacuated. […] At the completion of the reaction, the excess tritium was removed and the reacted peptide solution was diluted with DMF (0.5 ml) and filtered to remove the catalyst. The collected DMF solution of the crude peptide was diluted with water and freeze dried to remove the labile tritium. The solid peptide was redissolved in water and the freeze drying process repeated.
All steps were carried out at 4° C. under approved biohazard safety conditions. Platelets were centrifuged at 100×g for 20 minutes at 4° C. to remove red cells. The supernatants were decanted and centrifuged at 3000×g for 15 minutes to pellet platelets. […] This step was repeated two additional times. […] To complete membrane preparation, aliquots were thawed, pooled, and homogenized with 5 strokes of a Dounce homogenizer. Membranes were pelleted and washed 3 times in 10 mM triethanolamine-HCl, pH 7.4, 5 mM EDTA, and resuspended in 20-25 ml 50 mM Tris-HCl, pH 7.5, 10 mM MgCl2, 1 mM EGTA, and 1% DMSO.
High Throughput Thrombin Receptor Radioligand Binding Assay
Stock solutions (10 mM in 100% DMSO) of test compounds were further diluted in 100% DMSO. Unless otherwise indicated, 10 μl of diluted compound solutions and 90 μl of radioligand (a final concentration of 10 nM in 5% DMSO) were added to each well, and the reaction was started by the addition of 100 μl of membranes (40 μg protein/well). […] Compounds were tested at three concentrations (0.1, 1 and 10 μM).

SMILES	IC50
CC[C@H]1[C@H](/C=C/c2ccc(-c3ccccc3)cn2)[C@@H]2[C@@H](C)OC(=O)[C@]2(C(N)=O)C[C@@H]1C [Example 17H]	1 to 100 nM
C[C@H]1[C@H](/C=C/c2ccc(-c3ccccc3)cn2)[C@@H]2[C@@H](C)OC(=O)[C@]2(N)C[C@@H]1C [Example 20E]	1 to 100 nM

Further lines, results first:

IC50	SMILES
1 to 100 nM	C[C@H]1[C@H](/C=C/c2ccc(-c3ccccc3C#N)cn2)[C@@H]2[C@@H](C)OC(=O)[C@]2(N)C[C@@H]1C [Example 20H]
1 to 100 nM	C[C@H]1[C@H](/C=C/c2ccc(-c3cccc(C#N)c3)cn2)[C@@H]2[C@@H](C)OC(=O)[C@]2(N)C[C@@H]1C [Example 20G]
1 to 100 nM	C[C@H]1[C@H](/C=C/c2ccc(-c3cccc(F)c3)cn2)[C@@H]2[C@@H](C)OC(=O)[C@]2(N)C[C@@H]1C [Example 20F]
